# Reference: paper PMC3734245, “Surface Display and Bioactivity of Bombyx mori Acetylcholinesterase on Pichia pastoris” (PLoS ONE, 2013)
# Target: T1, displayed BmAChE (Bombyx mori, UniProt A5A2M5)
# T1 construct: signal peptide and hydrophobic C-terminal tail removed; N-terminal FLAG tag; (Gly4Ser)3 linker to S. cerevisiae AGalpha1 anchor at C-terminus; bmace about 1900 bp; primers encode N-terminal RSWANH and C-terminal TGPYSS
# Test: Ellman assay, yeast cell suspension displaying the enzyme
# Type: cell-based
# T1 sequence (A5A2M5 entry or part of it): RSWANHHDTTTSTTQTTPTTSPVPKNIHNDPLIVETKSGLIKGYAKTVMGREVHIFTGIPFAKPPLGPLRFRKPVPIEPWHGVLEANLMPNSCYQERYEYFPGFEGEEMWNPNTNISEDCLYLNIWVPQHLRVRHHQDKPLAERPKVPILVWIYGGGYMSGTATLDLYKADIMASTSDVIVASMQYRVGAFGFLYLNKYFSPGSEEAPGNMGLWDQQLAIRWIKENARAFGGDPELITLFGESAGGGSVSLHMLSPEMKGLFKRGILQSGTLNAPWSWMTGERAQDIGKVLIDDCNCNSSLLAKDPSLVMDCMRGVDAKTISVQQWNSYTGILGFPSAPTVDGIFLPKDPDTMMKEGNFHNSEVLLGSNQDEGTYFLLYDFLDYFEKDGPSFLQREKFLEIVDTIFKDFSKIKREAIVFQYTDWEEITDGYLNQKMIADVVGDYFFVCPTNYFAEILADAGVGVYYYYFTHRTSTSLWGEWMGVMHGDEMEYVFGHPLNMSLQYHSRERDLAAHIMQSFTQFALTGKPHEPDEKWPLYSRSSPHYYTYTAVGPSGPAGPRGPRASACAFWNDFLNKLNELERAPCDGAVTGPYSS
row,SMILES,IC50
1,CNC(=O)Oc1ccccc1C(C)C [isoprocarb],0.0111 µM
2,CNC(=O)Oc1cccc2c1OC(C)(C)C2 [carbofuran],0.00192 µM
3,COP(=O)(OC)C(O)C(Cl)(Cl)Cl (stereo not shown) [trichlorphon],0.24 µM
4,CCOP(=S)(OCC)Oc1ccc([N+](=O)[O-])cc1 [parathion],1.13 µM
5,CCCCN(CCCC)SN(C)C(=O)Oc1cccc2c1OC(C)(C)C2 [carbosulfan],0.113 µM
6,CNC(=O)Oc1cc(C)c(SC)c(C)c1 [methiocarb],0.0658 µM
7,CCOC(=O)CC(SP(=S)(OC)OC)C(=O)OCC (stereo not shown) [malathion],1.41 µM
8,CNC(=O)Oc1ccc2c(c1)[C@]1(C)CCN(C)[C@@H]1N2C [eserine],0.0417 µM
9,COP(N)(=S)Oc1ccccc1C(=O)OC(C)C (stereo not shown) [isocarbophos],0.91 µM
10,COP(N)(=O)SC (stereo not shown) [methamidophos],1.07 µM
11,CNC(=O)CSP(=S)(OC)OC [dimethoate],1.14 µM
12,CNC(=O)ON=C(C)SC [methomyl],0.0641 µM
13,COP(=O)(OC)OC=C(Cl)Cl [dichlorphos],0.903 µM
